Experimental data taken from patent publication US5792467A, “Repellent compositions containing aromatic aldehydes” (Proguard, Inc., priority 1996, dated 1998).
“Also recorded” adds a separate entry of the source. Like-named read-outs stand apart in the source and are kept apart here.

Experiments:
[1] = tested on: Western Flower Thrips (Thysanoptera); test: Repellency to Western Flower Thrips on alfalfa inflorescence; format: in vivo; details: 2% coniferyl aldehyde, 1% Tween 80
From the text: Western Flower Thrips (Thysanoptera) were collected in the field on infested alfalfa (Medicago sativa). Alfalfa inflorescence were cut then dipped in either a coniferyl aldehyde formulation (2% coniferyl aldehyde, 1% Tween 80) or a water control, then were placed in an experimental arena (approximately 9 cm in diameter by 6 centimeter in height) on a Whatman filter paper disk covering the floor of the arena. Approximately fifty (50) to sixty (60) insects were aspirated into the experimental arena which was then covered with a transparent lid. […] Repellency was determined by the relative number of individuals who successfully maintained feeding and colonization on the inflorescence over time.

[2] = tested on: Aedes Aegypsi (yellow fever mosquito); test: Median Effective Dose to repel Aedes aegypti, mosquito blood feeder; format: in vivo; details: Bandruche membrane, 37°, acetone formulation
Description: Median Effective Dose (ED50) is defined as the amount of chemical required to repel 50% of a target pest. […] The test system used was a mosquito blood feeder, which includes a constant temperature water circulator to warm the blood in the feeder, and the test cage. The blood was maintained at 37°. The blood feeder has five circular blood reservoirs, each of which is filled with outdated blood obtained from the Walter Reed Army Medical Center and certified safe according to Blood Bank testing procedures. The blood was replenished with adenosine triphosphate (ATP), without which the mosquitoes will not feed freely. The blood-filledreservoirs were covered with a Bandruche membrane (a standard membrane barrier). […] DEET was used as a positive control in a similar manner. A negative control formulation (water only) also was tested. The mosquitoes were given access to the blood reservoirs on a "free feeding" basis by means of a sliding door in the bottom of the test cage.

[3] = 33% DEET; cited from earlier work
[4] = 25° C.; cited from earlier work
[5] = cited from earlier work
[6] = tested on: eczema and dermatitis patients; details: human, in vivo; cited from earlier work
[7] = cited from earlier work; remark: listed apart in the source
human subjects [8] = details: 12% in petrolatum, 48 hour closed patch; cited from earlier work
[9] = tested on: yellow fever mosquito (Aedes aegypti (L)); test: Direct skin application, protection time against yellow fever mosquito; format: in vivo; details: 1 ml 100% HCA on forearm
Description: (§1) A glove was worn to protect the untreated hand while the treated forearm was exposed in a cage containing a high number (2,000-4,000) of unfed mosquitoes for 3 minutes at intervals of approximately 30 minutes until two bites were received (two bites in one test period or one bite in each of two consecutive test periods). The time interval between application and when two bites were received was defined as the "protection time." The repellent classes based on protection time (minutes) are listed below: […]

human subjects [10] = details: 20% in diethylphthalate, 100 human subjects; cited from earlier work
human = details: cited from earlier work
[11] = tested on: patients sensitive to 2% cinnamaldehyde; details: human, in vivo; cited from earlier work
yellow fever mosquito = test: Application to clothing, treated stocking against yellow fever mosquito; format: in vivo, Aedes aegypti; details: cotton stocking, 3.3 g/ft^2
Description: HCA also was evaluated on treated cloth against the yellow fever mosquito. In these tests, women's mercerized-cotton stockings were used. […] The stocking was spread on a rack to dry and then hung indoors on a line. The first tests were done 24 hours after treatment. The treated stocking was drawn over the arm, with the treated portion midway on the forearm. The untreated hand was protected with a glove and the stocking-covered arm was exposed for one minute in a testcage. If 5 bites were received, the treatment was considered ineffective. If less than 5 bites were received; the exposures were continued daily until the 14th day and at weekly or biweekly intervals thereafter.

[12] = tested on: malaria mosquito (Anopheles quadrimaculatus Say); test: Direct skin application, protection time against malaria mosquito; format: in vivo; details: 1 ml 100% HCA on forearm
Description: as §1

rats = details: rat, in vivo; cited from earlier work
[13] = tested on: grape phylloxera (Daktulosphaira vitifoliae Fitch); test: Treatment of grapevine leaves for control of root forms of grape phylloxera; format: in vivo; details: for Number of Phylloxera on 6 root sections, Eggs: water 52; for Number of Phylloxera on 6 root sections, 1st instar / Number of Phylloxera on 6 root sections, 2nd instar / Number of Phylloxera on 6 root sections, 3rd instar: water 7; for Number of Phylloxera on 6 root sections, 4th instar: water 13; for Number of Phylloxera on 6 root sections, Adults: water 16
Description: The root form of grape phylloxera (Daktulosphaira vitifoliae Fitch) is arguably the most devastating grape insect world wide. In this experiment, cinnamic aldehyde formulated with 1% Tween 80 was tested for ability to control phylloxera. One year old potted V. vinifera cultivar merlot plants were used that had been obtained from Foundation Plant Material Service, University of California, Davis. The plants were potted in 10 cm diameter ports and were infested with phylloxera 5 weeks prior to treatment. At the time of spraying, plant pots were placed in a plastic bag so that chemical runoff from the leaf sprays would not drip into the soil. Spray was applied to runoff with a household 1 liter-capacity plastic spray bottle. Plants were allowed to air dry outside and then replaced in the greenhouse. At intervals thereafter, the roots were separated from the potting mix and total phylloxera population estimated.
Roots from plants at 5 weeks post-treatment were excised and 6 root sections, about 3 mm diameter by 4 cm length were cleaned of infestations and used in a bioassay. For this bioassay, root sections were inoculated with 20 eggs and the roots maintained as the colonies were maintained. After 25 days, the number of individuals of each age class were counted.

## COc1cc(/C=C/C=O)ccc1O [Coniferyl Aldehyde, coniferyl aldehyde]
[1]; about 50-60 insects, 30 min, water control 22(alive)
  Number of insects on inflorescence (colonization and feeding): 2(dead)
[1]; control tranquil, normal flight, feeding
  Description of insect behavior: Irritated by treatment; also recorded: extreme agitation; also recorded: frequent flying. No
[1]; max, water control 30 minutes
  Length of insect residence time on inflorescence: ≤ 15 s

## CCN(CC)C(=O)c1cccc(C)c1 [DEET, N,N-diethyl-1,3-methylbenzamide]
[2]
  Median Effective Dose (ED50): 0.0124 mg/cm^2
[3]
  duration of protection: 10 to 14 h
[4]
  vapor pressure: 167×10^-5 mm Hg
[5]; repeated use on skin in high concentrations
  adverse effects: can cause allergic and toxic effects

## CCCCCCC(C=O)=Cc1ccccc1 [HCA, 2-(phenylmethylene) octanal]
[6]
  patch test positive results out of 100: 0
[7]
  dermal LD50: greater than 3 g/kg
Human subjects [8]
  irritation: no irritation
[9]
  protection time: 121 to 180 min
[9]; USDA rating scale
  repellent class based on protection time: 3 (121-180)
[2]
  Median Effective Dose (ED50): 0.0031 mg/cm^2
Human subjects [10]
  positive reactions, repeated insult patch test: no positive reactions
human; in vivo
  human maximization test result: negative
[11]
  patients found to be sensitive: none
Yellow fever mosquito
  duration of effectiveness on treated cloth: more than 10 days
  protection time grade on treated cloth: 4 (effective for more than 10 days)
[12]
  protection time: 31 to 60 min
[12]; USDA rating scale
  repellent class based on protection time: 2 (31-60)
rats
  oral LD50: 3.1 g/kg

## O=C/C=C/c1ccccc1 [cinnamic aldehyde]
[13]; 300 ppm, 1% Tween 80, roots 5 weeks post-treatment, 25 days
  Number of Phylloxera on 6 root sections, Eggs: 16
[13]; 300 ppm
  Number of Phylloxera on 6 root sections, 1st instar: 0
  Number of Phylloxera on 6 root sections, 2nd instar: 6
  Number of Phylloxera on 6 root sections, 3rd instar: 5
  Number of Phylloxera on 6 root sections, 4th instar: 0
  Number of Phylloxera on 6 root sections, Adults: 4
[13]; 1000 ppm
  Number of Phylloxera on 6 root sections, 1st instar: 0
  Number of Phylloxera on 6 root sections, 2nd instar: 1
  Number of Phylloxera on 6 root sections, 3rd instar: 4
  Number of Phylloxera on 6 root sections, 4th instar: 2
  Number of Phylloxera on 6 root sections, Adults: 1
  Number of Phylloxera on 6 root sections, Eggs: 2
[13]; 3000 ppm
  Number of Phylloxera on 6 root sections, 1st instar: 0
  Number of Phylloxera on 6 root sections, 2nd instar: 2
  Number of Phylloxera on 6 root sections, 3rd instar: 1
  Number of Phylloxera on 6 root sections, 4th instar: 1
  Number of Phylloxera on 6 root sections, Adults: 0
  Number of Phylloxera on 6 root sections, Eggs: 0
[13]; 10,000 ppm
  Number of Phylloxera on 6 root sections, 1st instar: 0
  Number of Phylloxera on 6 root sections, 2nd instar: 2
  Number of Phylloxera on 6 root sections, 3rd instar: 0
  Number of Phylloxera on 6 root sections, 4th instar: 0
  Number of Phylloxera on 6 root sections, Adults: 0
  Number of Phylloxera on 6 root sections, Eggs: 0
[13]; after foliage treatment
  duration of resistance of excised roots to phylloxera reinfestation: at least 5 weeks
[13]; foliage of whole plants treated
  feeding sites after foliage treatment: Vacant feeding sites were seen
human; literature data, Jimbo (1983)
  human maximization test result: positive reaction

## CCCC(O)C(CC)CO (stereo not shown) [ethyl hexanediol]
[5]; basis of 1991 EPA cancellation of registrations
  adverse effects: possible adverse effects of the compound on fetal development
